Data taken from PubChem BioAssay AID1963875 (Molecular Pharmacology Branch, DTP, NCI, 2024).

System: KRAS-mutant PDC complex spheroid viability
Test: Anticancer human tumor 186277-243-T-J2-PDC patient-derived colon adenocarcinoma cell line growth inhibition [KRAS2]
Conditions: for IC50: curve of first compound; for viability, T/C: stronger effect = lower value; active means viability on the fitted dose curve at most 10% of control; inactive means the rest
In short: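 Combination screen of spheroid viability in tumor-cell co-cultures with endothelial (HUVEC) and mesenchymal stem cell stroma. Each agent was tested in half-log dilutions, topping at clinical Cmax or at 10 microM without a known Cmax.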

[1] = second compound 0.1 µM, first compound 0.01 µM
[2] = second compound 0.1 µM, first compound 0.0316 µM
[3] = second compound 0.1 µM, first compound 0.1 µM
[4] = second compound 0.1 µM, first compound 0.316 µM
[5] = second compound 0.1 µM, first compound 1 µM
[6] = second compound 0.1 µM, first compound 3.16 µM
[7] = second compound 0.316 µM, first compound 0.01 µM
[8] = second compound 0.316 µM, first compound 0.0316 µM
[9] = second compound 0.316 µM, first compound 0.1 µM
[10] = second compound 0.316 µM, first compound 0.316 µM
[11] = second compound 0.316 µM, first compound 1 µM
[12] = second compound 0.316 µM, first compound 3.16 µM
[13] = second compound 1 µM, first compound 0.01 µM
[14] = second compound 1 µM, first compound 0.0316 µM
[15] = second compound 1 µM, first compound 0.1 µM
[16] = second compound 1 µM, first compound 0.316 µM
[17] = second compound 1 µM, first compound 1 µM
[18] = second compound 1 µM, first compound 3.16 µM
[19] = second compound 3.16 µM, first compound 0.01 µM
[20] = second compound 3.16 µM, first compound 0.0316 µM
[21] = second compound 3.16 µM, first compound 0.1 µM
[22] = second compound 3.16 µM, first compound 0.316 µM
[23] = second compound 3.16 µM, first compound 1 µM
[24] = second compound 3.16 µM, first compound 3.16 µM
[25] = second compound 10 µM, first compound 0.0316 µM
[26] = second compound 10 µM, first compound 0.1 µM
[27] = second compound 10 µM, first compound 0.316 µM
[28] = second compound 10 µM, first compound 1 µM
[29] = second compound 10 µM, first compound 3.16 µM
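Wherever viability, T/C is given: viability read after seven days of compound exposure; 100% = DMSO vehicle-treated spheroids so lower means less viable.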

CC1COCCN1c1cc(-c2ccnn2C)c2ccnc(-c3ccn[nH]3)c2n1 (stereo not given) + CNCc1ccccc1-c1csc(C(C)Nc2nc(C)nc3cc(OC)c(OC)cc23)c1
20 nM: IC50 (second compound 0.1 µM)
< 10 nM: IC50 (second compound 3.16 µM) | IC50 (second compound 10 µM)
inactive: viability, T/C [1] 97.7% | viability, T/C [2] 18.4% | viability, T/C [7] 98.4% | viability, T/C [8] 24.2% | viability, T/C [13] 98.9% | viability, T/C [14] 15.5% | viability, T/C [19] 23.7%
21.2 nM: IC50 (second compound 0.316 µM)
active: viability, T/C [3] 5.46% | viability, T/C [4] 3.99% | viability, T/C [5] 3.43% | viability, T/C [6] 4.08% | viability, T/C [9] 8.14% | viability, T/C [10] 3.97% | viability, T/C [11] 3.29% | viability, T/C [12] 4.28% | viability, T/C [15] 4.99% | viability, T/C [16] 3.97% | viability, T/C [17] 3.82% | viability, T/C [18] 4.51% | viability, T/C [20] 1.99% | viability, T/C [21] 0.3% | viability, T/C [22] 0.17% | viability, T/C [23] 0.22% | viability, T/C [24] 0.31% | viability, T/C (second compound 10 µM, first compound 0.01 µM) 0.13% | viability, T/C [25] 0.1% | viability, T/C [26] 0.09% | viability, T/C [27] 0.09% | viability, T/C [28] 0.1% | viability, T/C [29] 0.15%
19.6 nM: IC50 (second compound 1 µM)

CCNC(=O)CC1N=C(c2ccc(Cl)cc2)c2cc(OC)ccc2-n2c(C)nnc21 (stereo not given) + COc1cc2nc(C)nc(NC(C)c3cc(N)cc(C(F)(F)F)c3)c2cc1OC1CCOC1
1160 nM: IC50 (second compound 1 µM)
229 nM: IC50 (second compound 10 µM)
inactive: viability, T/C [2] 100% | viability, T/C [3] 103% | viability, T/C [4] 139% | viability, T/C [5] 84.7% | viability, T/C [6] 26.7% | viability, T/C (second compound 0.1 µM, first compound 10 µM) 18.8% | viability, T/C [8] 102% | viability, T/C [9] 89.2% | viability, T/C [10] 124% | viability, T/C [11] 57.1% | viability, T/C [12] 28.9% | viability, T/C (second compound 0.316 µM, first compound 10 µM) 24.5% | viability, T/C [14] 93.4% | viability, T/C [15] 108% | viability, T/C [16] 123% | viability, T/C [17] 55% | viability, T/C [18] 24.3% | viability, T/C (second compound 1 µM, first compound 10 µM) 6.44% | viability, T/C [20] 84.8% | viability, T/C [21] 110% | viability, T/C [22] 107% | viability, T/C [23] 33.3% | viability, T/C [24] 13.5% | viability, T/C (second compound 3.16 µM, first compound 10 µM) 14.2% | viability, T/C [25] 90.5% | viability, T/C [26] 90.9% | viability, T/C [27] 34.2%
1910 nM: IC50 (second compound 0.1 µM)
active: viability, T/C [28] 2.69% | viability, T/C [29] 0.68% | viability, T/C (second compound 10 µM, first compound 10 µM) 0.42%
1310 nM: IC50 (second compound 0.316 µM)
751 nM: IC50 (second compound 3.16 µM)

CC(=O)Nc1cccc(-n2c(=O)n(C3CC3)c(=O)c3c(Nc4ccc(I)cc4F)n(C)c(=O)c(C)c32)c1 + C=CC(=O)N1CCN(c2nc(OCC3CCCN3C)nc3c2CCN(c2cccc4cccc(C)c24)C3)CC1CC#N
0.668 nM: IC50 (second compound 0.1 µM)
0.483 nM: IC50 (second compound 1 µM)
0.749 nM: IC50 (second compound 0.0316 µM)
active: viability, T/C (second compound 0.0316 µM, first compound 0.00316 µM) 7.61% | viability, T/C (second compound 0.0316 µM, first compound 0.01 µM) 2.46% | viability, T/C (second compound 0.0316 µM, first compound 0.0316 µM) 1.21% | viability, T/C (second compound 0.1 µM, first compound 0.00316 µM) 6.76% | viability, T/C [1] 2.36% | viability, T/C [2] 1.26% | viability, T/C (second compound 0.316 µM, first compound 0.00316 µM) 5.26% | viability, T/C [7] 2.18% | viability, T/C [8] 1.26% | viability, T/C (second compound 1 µM, first compound 0.001 µM) 8.66% | viability, T/C (second compound 1 µM, first compound 0.00316 µM) 2.88% | viability, T/C [13] 1.12% | viability, T/C [14] 0.75% | viability, T/C (second compound 3.16 µM, first compound 0.0001 µM) 0.32% | viability, T/C (second compound 3.16 µM, first compound 0.000316 µM) 0.18% | viability, T/C (second compound 3.16 µM, first compound 0.001 µM) 0.13% | viability, T/C (second compound 3.16 µM, first compound 0.00316 µM) 0.12% | viability, T/C [19] 0.11% | viability, T/C [20] 0.19%
< 0.1 nM: IC50 (second compound 3.16 µM)
inactive: viability, T/C (second compound 0.0316 µM, first compound 0.0001 µM) 98.2% | viability, T/C (second compound 0.0316 µM, first compound 0.000316 µM) 115% | viability, T/C (second compound 0.0316 µM, first compound 0.001 µM) 30.9% | viability, T/C (second compound 0.1 µM, first compound 0.0001 µM) 88.8% | viability, T/C (second compound 0.1 µM, first compound 0.000316 µM) 103% | viability, T/C (second compound 0.1 µM, first compound 0.001 µM) 25.1% | viability, T/C (second compound 0.316 µM, first compound 0.0001 µM) 103% | viability, T/C (second compound 0.316 µM, first compound 0.000316 µM) 99% | viability, T/C (second compound 0.316 µM, first compound 0.001 µM) 23.8% | viability, T/C (second compound 1 µM, first compound 0.0001 µM) 105% | viability, T/C (second compound 1 µM, first compound 0.000316 µM) 74%
0.67 nM: IC50 (second compound 0.316 µM)
